Measured values reported in patent publication US8461152B2, “Arylcyclohexylethers of dihydrotetraazabenzoazulenes” (Hoffmann-La Roche Inc., priority 2008, dated 2013).
Structures can show the parent of a compound that is named as a salt.

Target: T1, human V1a receptor (Homo sapiens, UniProt P37288)
T1 construct: expressed in transfected cells; host or cells: HEK293 cells, transiently transfected; membrane preparation
Assay: human V1a receptor binding studies (SPA, 3H-Vasopressin, membranes of transfected HEK293 cells)
Conditions: displacement of 3H-Vasopressin, HEK293 cell membranes, 1 h at room temperature; Ki by Cheng-Prussoff equation; read-out: pKi (hV1a) (converted)
Description: The human V1a receptor was cloned by RT-PCR from total human liver RNA. The coding sequence was subcloned in an expression vector after sequencing to confirm the identity of the amplified sequence. […] Cell membranes were prepared from HEK293 cells transiently transfected with the expression vector and grown in 20 liter fermenters with the following protocol.
50 g of cells are resuspended in 30 ml freshly prepared ice cold Lysis buffer (50 mM HEPES, 1 mM EDTA, 10 mM magnesium dichloride adjusted to pH=7.4+complete cocktail of protease inhibitor (Roche Diagnostics)). Homogenized with Polytron for 1 min and sonicated on ice for 2×2 minutes at 80% intensity (Vibracell sonicator). The preparation is centrifuged 20 min at 500 g at 4° C., the pellet is discarded and the supernatant centrifuged 1 hour at 43'000 g at 4° C. (19'000 rpm). The pellet is resuspended in 12.5 ml Lysis buffer+12.5 ml Sucrose 20% and homogenized using a Polytron for 1-2 min. The protein concentration is determined by the Bradford method and aliquots are stored at −80° C. until use. For binding studies 60 mg Yttrium silicate SPA beads (Amersham) are mixed with an aliquot of membrane in binding buffer (50 mM Tris, 120 mM sodium chloride, 5 mM potassium chloride, 2 mM Calcium dichloride, 10 mM magnesium dichloride) for 15 minutes with mixing. 50 μl of bead/membrane mixture is then added to each well of a 96 well plate, followed by 50 μl of 4 nM 3H-Vasopressin (American Radiolabeled Chemicals). For total binding measurement 100 μl of binding buffer are added to the respective wells, for non-specific binding 100 μl of 8.4 mM cold vasopressin and for compound testing 100 μl of a serial dilution of each compound in 2% dimethyl sulfoxide. The plate is incubated 1 h at room temperature, centrifuged […] at 1000 g and counted on a Packard Top-Count. Non-specific binding counts are subtracted from each well and data is normalized to the maximum specific binding set at 100%. To calculate an IC 50 the curve is fitted using a non-linear regression model (XLfit) and the Ki is calculated using the Cheng-Prussoff equation.

T1 sequence (P37288 whole entry): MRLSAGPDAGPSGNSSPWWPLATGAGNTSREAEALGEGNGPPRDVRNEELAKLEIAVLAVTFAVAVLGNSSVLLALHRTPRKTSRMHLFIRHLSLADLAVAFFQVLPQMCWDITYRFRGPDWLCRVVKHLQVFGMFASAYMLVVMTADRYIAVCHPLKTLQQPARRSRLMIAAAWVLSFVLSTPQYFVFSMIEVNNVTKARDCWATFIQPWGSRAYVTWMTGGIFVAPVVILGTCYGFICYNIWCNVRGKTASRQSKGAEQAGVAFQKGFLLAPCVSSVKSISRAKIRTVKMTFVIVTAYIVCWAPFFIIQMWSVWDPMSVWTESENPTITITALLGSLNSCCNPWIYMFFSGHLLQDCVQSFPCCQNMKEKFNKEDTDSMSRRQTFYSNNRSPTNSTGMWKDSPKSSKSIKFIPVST

Compound	Ki
Cc1cccc(O[C@H]2CC[C@H](c3nnc4n3-c3ccc(Cl)cc3CN(C)C4)CC2)c1 [Example 37, trans-8-Chloro-5-methyl-1-(4-m-tolyloxy-cyclohexyl)-5,6-dihydro-4H-2,3,5,10b-tetraaza-benzo[e]azulene]	1.7 nM
CC(C)(C)OC(=O)N1Cc2cc(Cl)ccc2-n2c(nnc2[C@H]2CC[C@H](Oc3cccc(C(C)(C)C)c3)CC2)C1 [Example 38, trans-1-[4-(3-tert-Butyl-phenoxy)-cyclohexyl]-8-chloro-4H,6H-2,3,5,10b-tetraaza-benzo[e]azulene-5-carboxylic acid tert-butyl ester]	18.2 nM
CC(C)(C)OC(=O)N1Cc2cc(Cl)ccc2-n2c(nnc2[C@H]2CC[C@H](Oc3ccccc3F)CC2)C1 [Example 43, trans-8-Chloro-1-[4-(2-fluoro-phenoxy)-cyclohexyl]-4H,6H-2,3,5,10b-tetraaza-benzo[e]azulene-5-carboxylic acid tert-butyl ester]	6.17 nM
Fc1ccccc1O[C@H]1CC[C@H](c2nnc3n2-c2ccc(Cl)cc2CNC3)CC1 [Example 44, trans-8-Chloro-1-[4-(2-fluoro-phenoxy)-cyclohexyl]-5,6-dihydro-4H-2,3,5,10b-tetraaza-benzo[e]azulene hydrochloride]	3.39 nM
CN1Cc2cc(Cl)ccc2-n2c(nnc2[C@H]2CC[C@H](Oc3ccccc3F)CC2)C1 [Example 45, trans-8-Chloro-1-[4-(2-fluoro-phenoxy)-cyclohexyl]-5-methyl-5,6-dihydro-4H-2,3,5,10b-tetraaza-benzo[e]azulene]	3.63 nM
CC(C)(C)OC(=O)N1Cc2cc(Cl)ccc2-n2c(nnc2[C@H]2CC[C@H](Oc3ccccc3C#N)CC2)C1 [Example 46, trans-8-Chloro-1-[4-(2-cyano-phenoxy)-cyclohexyl]-4H,6H-2,3,5,10b-tetraaza-benzoazulene-5-carboxylic acid tert-butyl ester]	2.88 nM
N#Cc1ccccc1O[C@H]1CC[C@H](c2nnc3n2-c2ccc(Cl)cc2CNC3)CC1 [Example 47, trans-2-[4-(8-Chloro-5,6-dihydro-4H-2,3,5,10b-tetraaza-benzo[e]azulen-1-yl)-cyclohexyloxy]-benzonitrile hydrochloride]	1.2 nM
CN1Cc2cc(Cl)ccc2-n2c(nnc2[C@H]2CC[C@H](Oc3ccccc3C#N)CC2)C1 [Example 48, trans-2-[4-(8-Chloro-5-methyl-5,6-dihydro-4H-2,3,5,10b-tetraaza-benzoazulen-1-yl)-cyclohexyloxy]-benzonitrile]	0.794 nM
Cc1ccccc1O[C@H]1CC[C@H](c2nnc3n2-c2ccc(Cl)cc2CN(C(=O)OC(C)(C)C)C3)CC1 [Example 49, trans-8-Chloro-1-(4-o-tolyloxy-cyclohexyl)-4H,6H-2,3,5,10b-tetraaza-benzoazulene-5-carboxylic acid tert-butyl ester]	7.08 nM
Cc1ccccc1O[C@H]1CC[C@H](c2nnc3n2-c2ccc(Cl)cc2CN(C)C3)CC1 [Example 51, trans-8-Chloro-5-methyl-1-(4-o-tolyloxy-cyclohexyl)-5,6-dihydro-4H-2,3,5,10b-tetraaza-benzoazulene]	3.72 nM
CC(C)(C)OC(=O)N1Cc2cc(Cl)ccc2-n2c(nnc2[C@H]2CC[C@H](Oc3cc(F)cc(F)c3)CC2)C1 [Example 52, trans-8-Chloro-1-[4-(3,5-difluoro-phenoxy)-cyclohexyl]-4H,6H-2,3,5,10b-tetraaza-benzoazulene-5-carboxylic acid tert-butyl ester]	3.47 nM
CN1Cc2cc(Cl)ccc2-n2c(nnc2[C@H]2CC[C@H](Oc3cc(F)cc(F)c3)CC2)C1 [Example 54, trans-8-Chloro-1-[4-(3,5-difluoro-phenoxy)-cyclohexyl]-5-methyl-5,6-dihydro-4H-2,3,5,10b-tetraaza-benzoazulene]	3.89 nM
CC(C)(C)OC(=O)N1Cc2cc(Cl)ccc2-n2c(nnc2[C@H]2CC[C@H](Oc3ccc4ccccc4c3)CC2)C1 [Example 55, trans-8-Chloro-1-[4-(naphthalen-2-yloxy)-cyclohexyl]-4H,6H-2,3,5,10b-tetraaza-benzoazulene-5-carboxylic acid tert-butyl ester]	9.33 nM
CN1Cc2cc(Cl)ccc2-n2c(nnc2[C@H]2CC[C@H](Oc3ccc4ccccc4c3)CC2)C1 [Example 57, trans-8-Chloro-5-methyl-1-[4-(naphthalen-2-yloxy)-cyclohexyl]-5,6-dihydro-4H-2,3,5,10b-tetraaza-benzoazulene]	5.75 nM
CC(C)(C)OC(=O)N1Cc2cc(Cl)ccc2-n2c(nnc2[C@H]2CC[C@H](Oc3cccnc3)CC2)C1 [Example 61, trans-8-Chloro-1-[4-(pyridin-3-yloxy)-cyclohexyl]-4H,6H-2,3,5,10b-tetraaza-benzoazulene-5-carboxylic acid tert-butyl ester]	1.51 nM
CN1Cc2cc(Cl)ccc2-n2c(nnc2[C@H]2CC[C@H](Oc3cccnc3)CC2)C1 [Example 63, trans-8-Chloro-5-methyl-1-[4-(pyridin-3-yloxy)-cyclohexyl]-5,6-dihydro-4H-2,3,5,10b-tetraaza-benzoazulene]	4.57 nM
CC(C)(C)OC(=O)N1Cc2cc(Cl)ccc2-n2c(nnc2[C@H]2CC[C@H](Oc3cncc(Cl)c3)CC2)C1 [Example 64, trans-8-Chloro-1-[4-(5-chloro-pyridin-3-yloxy)-cyclohexyl]-4H,6H-2,3,5,10b-tetraaza-benzoazulene-5-carboxylic acid tert-butyl ester]	9.55 nM
CN1Cc2cc(Cl)ccc2-n2c(nnc2[C@H]2CC[C@H](Oc3cncc(Cl)c3)CC2)C1 [Example 66, trans-8-Chloro-1-[4-(5-chloro-pyridin-3-yloxy)-cyclohexyl]-5-methyl-5,6-dihydro-4H-2,3,5,10b-tetraaza-benzoazulene]	9.12 nM
CC(C)(C)OC(=O)N1Cc2cc(Cl)ccc2-n2c(nnc2[C@H]2CC[C@H](Oc3ccccn3)CC2)C1 [Example 67, trans-8-Chloro-1-[4-(pyridin-2-yloxy)-cyclohexyl]-4H,6H-2,3,5,10b-tetraaza-benzoazulene-5-carboxylic acid tert-butyl ester]	3.31 nM
Clc1ccc2c(c1)CNCc1nnc([C@H]3CC[C@H](Oc4ccccn4)CC3)n1-2 [Example 68, trans-8-Chloro-1-[4-(pyridin-2-yloxy)-cyclohexyl]-5,6-dihydro-4H-2,3,5,10b-tetraaza-benzoazulene hydrochloride]	6.17 nM
CN1Cc2cc(Cl)ccc2-n2c(nnc2[C@H]2CC[C@H](Oc3ccccn3)CC2)C1 [Example 69, trans-8-Chloro-5-methyl-1-[4-(pyridin-2-yloxy)-cyclohexyl]-5,6-dihydro-4H-2,3,5,10b-tetraaza-benzoazulene]	1.1 nM
CC(C)(C)OC(=O)N1Cc2cc(Cl)ccc2-n2c(nnc2[C@H]2CC[C@H](Oc3cccc(Cl)n3)CC2)C1 [Example 70, trans-8-Chloro-1-[4-(6-chloro-pyridin-2-yloxy)-cyclohexyl]-4H,6H-2,3,5,10b-tetraaza-benzo[e]azulene-5-carboxylic acid tert-butyl ester]	9.12 nM
CN1Cc2cc(Cl)ccc2-n2c(nnc2[C@H]2CC[C@H](Oc3cccc(Cl)n3)CC2)C1 [Example 72, trans-8-Chloro-1-[4-(6-chloro-pyridin-2-yloxy)-cyclohexyl]-5-methyl-5,6-dihydro-4H-2,3,5,10b-tetraaza-benzo[e]azulene]	2.4 nM
Clc1ccc(O[C@H]2CC[C@H](c3nnc4n3-c3ccc(Cl)cc3CNC4)CC2)nc1 [Example 74, trans-8-Chloro-1-[4-(5-chloro-pyridin-2-yloxy)-cyclohexyl]-5,6-dihydro-4H-2,3,5,10b-tetraaza-benzo[e]azulene hydrochloride]	11.2 nM
CN1Cc2cc(Cl)ccc2-n2c(nnc2[C@H]2CC[C@H](Oc3ccc(Cl)cn3)CC2)C1 [Example 75, trans-8-Chloro-1-[4-(5-chloro-pyridin-2-yloxy)-cyclohexyl]-5-methyl-5,6-dihydro-4H-2,3,5,10b-tetraaza-benzo[e]azulene]	2.82 nM
CC(C)(C)OC(=O)N1Cc2cc(Cl)ccc2-n2c(nnc2[C@H]2CC[C@H](Oc3ncccn3)CC2)C1 [Example 79, trans-8-Chloro-1-[4-(pyrimidin-2-yloxy)-cyclohexyl]-4H,6H-2,3,5,10b-tetraaza-benzo[e]azulene-5-carboxylic acid tert-butyl ester]	2.57 nM
CC(C)(C)OC(=O)N1Cc2cc(Cl)ccc2-n2c(nnc2[C@H]2CC[C@@H](Oc3ncccn3)CC2)C1 [Example 80, cis-8-Chloro-1-[4-(pyrimidin-2-yloxy)-cyclohexyl]-4H,6H-2,3,5,10b-tetraaza-benzo[e]azulene-5-carboxylic acid tert-butyl ester]	12.6 nM
